# In patent publication US10681909B2, “Herbicidal triazoles” (FMC Corporation, priority 2014, dated 2020):
# Assays:
# pigweed [1] = experiment: Test A preemergence; format: in vivo, Amaranthus retroflexus; conditions: 0 to 100 scale (0 no effect, 100 complete control)
# How it was run: (§1)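 Pre- and postemergence spray tests in a loam soil–sand mixture: seeded soil received a directed spray, while established seedlings 2–10 cm high at the one- to two-leaf stage were treated over the top. Compounds were carried in non-phytotoxic solvent with surfactant.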
# corn = experiment: Test A postemergence; format: in vivo, Zea mays; conditions: 0 to 100 scale (0 no effect, 100 complete control), approx. 10 d
# How it was run: as §1
# rice = experiment: Test B flooded paddy test; format: in vivo, Oryza sativa; conditions: 250 g ai/ha, applied to paddy water at 2-leaf stage, visual rating after 13 to 15 d, scale 0 (no effect) to 100 (complete control)
# How it was run: (§2)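 Pots were flooded to 3 cm above the soil at treatment, and compounds were applied directly into the paddy water. That depth was held throughout. After 13 to 15 d in a greenhouse, plants were rated visually against untreated controls.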
# ducksalad = experiment: Test B flooded paddy test; format: in vivo, Heteranthera limosa; conditions: 250 g ai/ha, applied to paddy water at 2-leaf stage, visual rating after 13 to 15 d, scale 0 (no effect) to 100 (complete control)
# How it was run: as §2
# barnyardgrass = experiment: Test B flooded paddy test; format: in vivo, Echinochloa crus-galli; conditions: 250 g ai/ha, applied to paddy water at 2-leaf stage, visual rating after 13 to 15 d, scale 0 (no effect) to 100 (complete control)
# How it was run: as §2
# wheat (winter wheat) = experiment: Test C postemergence; format: in vivo, Triticum aestivum
# Source text: (§3) Seeds of plant species selected from blackgrass (Alopecurus myosuroides), ryegrass, Italian (Italian ryegrass, Lolium multiflorum), wheat (winter wheat, Triticum aestivum), galium (catchweed bedstraw, Galium aparine), corn (Zea mays), crabgrass, large (large crabgrass, Digitaria sanguinalis), foxtail, giant, (giant foxtail, Setaria faberii), johnsongrass (Sorghum halepense), lambsquarters (Chenopodium album), morningglory (Ipomoea coccinea), nutsedge, yellow (yellow nutsedge, Cyperus esculentus), pigweed (Amaranthus retroflexus), ragweed (common ragweed, Ambrosia elatior), soybean (Glycine max), barnyardgrass (Echinochloa crus-galli), oilseed rape (Brassica napus), waterhemp (common waterhemp, Amaranthus rudis), and velvetleaf (Abutilon theophrasti) were planted into a blend of loam soil and sand and treated preemergence with test chemicals formulated in a non-phytotoxic solvent mixture which included a surfactant. At the same time, plants selected from these crop and weed species and also chickweed (common chickweed, Stellaria media), oat, wild (wild oat, Avena fatua), and kochia (Kochia scoparia), were planted in pots containing Sunshine Redi-Earth® planting medium comprising spaghnum peat moss, vermiculite, starter nutrients and dolomitic limestone and treated with postemergence applications of test chemicals formulated in the same manner. Plants ranged in height from 2 to 18 cm (1- to 4-leaf stage) for postemergence treatments. […] A dash (-) response means no test result.
# foxtail, giant = experiment: Test C postemergence; format: in vivo, Setaria faberii
# Source text: as §3
# lambsquarters = experiment: Test C postemergence; format: in vivo, Chenopodium album
# Source text: as §3
# pigweed [2] = experiment: Test C postemergence; format: in vivo, Amaranthus retroflexus
# Source text: as §3
# ragweed = experiment: Test C postemergence; format: in vivo, Ambrosia elatior
# Source text: as §3
# soybean = experiment: Test C postemergence; format: in vivo, Glycine max
# Source text: as §3
# chickweed = experiment: Test C postemergence; format: in vivo, Stellaria media
# Source text: as §3
# oat, wild = experiment: Test C postemergence; format: in vivo, Avena fatua
# Source text: as §3
SMILES,"Plant response rating, Pigweed (pigweed [1]; 125 g ai/ha)","Plant response rating, Corn (corn; 125 g ai/ha)","Plant response rating, Rice, Flood (rice)","Plant response rating, Ducksalad, Flood (ducksalad)","Plant response rating, Barnyardgrass, Flood (barnyardgrass)",Plant response rating (scale of 0 to 100 where 0 is no effect and 100 is complete control) (wheat (winter wheat); 31 g ai/ha),Plant response rating (scale of 0 to 100 where 0 is no effect and 100 is complete control) (wheat (winter wheat); 62 g ai/ha),Plant response rating (scale of 0 to 100 where 0 is no effect and 100 is complete control) (wheat (winter wheat); 125 g ai/ha),"Plant response rating (scale of 0 to 100 where 0 is no effect and 100 is complete control) (foxtail, giant; 31 g ai/ha)","Plant response rating (scale of 0 to 100 where 0 is no effect and 100 is complete control) (foxtail, giant; 62 g ai/ha)","Plant response rating (scale of 0 to 100 where 0 is no effect and 100 is complete control) (foxtail, giant; 125 g ai/ha)",Plant response rating (scale of 0 to 100 where 0 is no effect and 100 is complete control) (lambsquarters; 31 g ai/ha),Plant response rating (scale of 0 to 100 where 0 is no effect and 100 is complete control) (lambsquarters; 62 g ai/ha),Plant response rating (scale of 0 to 100 where 0 is no effect and 100 is complete control) (lambsquarters; 125 g ai/ha),Plant response rating (scale of 0 to 100 where 0 is no effect and 100 is complete control) (pigweed [2]; 31 g ai/ha),Plant response rating (scale of 0 to 100 where 0 is no effect and 100 is complete control) (pigweed [2]; 62 g ai/ha),Plant response rating (scale of 0 to 100 where 0 is no effect and 100 is complete control) (pigweed [2]; 125 g ai/ha),Plant response rating (scale of 0 to 100 where 0 is no effect and 100 is complete control) (ragweed; 31 g ai/ha),Plant response rating (scale of 0 to 100 where 0 is no effect and 100 is complete control) (ragweed; 62 g ai/ha),Plant response rating (scale of 0 to 100 where 0 is no effect and 100 is complete control) (ragweed; 125 g ai/ha),also measured
COc1nc(-c2ccc(C(F)(F)F)cc2)nn1Cc1ccnc(C(F)(F)F)c1 [Compound 25],100,30,25,20,35,5,5,5,10,20,20,90,90,98,100,100,100,65,80,75,"Plant response rating, Pigweed (pigweed [1]; 31 g ai/ha): 90; Plant response rating, Corn (corn; 31 g ai/ha): 10; Plant response rating (scale of 0 to 100 where 0 is no effect and 100 is complete control) (wheat (winter wheat); 250 g ai/ha): 10; Plant response rating (scale of 0 to 100 where 0 is no effect and 100 is complete control) (foxtail, giant; 250 g ai/ha): 35; Plant response rating (scale of 0 to 100 where 0 is no effect and 100 is complete control) (lambsquarters; 250 g ai/ha): 98; Plant response rating (scale of 0 to 100 where 0 is no effect and 100 is complete control) (pigweed [2]; 250 g ai/ha): 100; Plant response rating (scale of 0 to 100 where 0 is no effect and 100 is complete control) (ragweed; 250 g ai/ha): 85; Plant response rating (scale of 0 to 100 where 0 is no effect and 100 is complete control) (soybean; 31 g ai/ha): 45; Plant response rating (scale of 0 to 100 where 0 is no effect and 100 is complete control) (soybean; 62 g ai/ha): 70; Plant response rating (scale of 0 to 100 where 0 is no effect and 100 is complete control) (soybean; 125 g ai/ha): 50; Plant response rating (scale of 0 to 100 where 0 is no effect and 100 is complete control) (soybean; 250 g ai/ha): 65; Plant response rating (scale of 0 to 100 where 0 is no effect and 100 is complete control) (chickweed; 31 g ai/ha): 50; Plant response rating (scale of 0 to 100 where 0 is no effect and 100 is complete control) (chickweed; 62 g ai/ha): 90; Plant response rating (scale of 0 to 100 where 0 is no effect and 100 is complete control) (chickweed; 125 g ai/ha): 85; Plant response rating (scale of 0 to 100 where 0 is no effect and 100 is complete control) (chickweed; 250 g ai/ha): 100; Plant response rating (scale of 0 to 100 where 0 is no effect and 100 is complete control) (oat, wild; 31 g ai/ha): 10; Plant response rating (scale of 0 to 100 where 0 is no effect and 100 is complete control) (oat, wild; 62 g ai/ha): 20; Plant response rating (scale of 0 to 100 where 0 is no effect and 100 is complete control) (oat, wild; 125 g ai/ha): 25; Plant response rating (scale of 0 to 100 where 0 is no effect and 100 is complete control) (oat, wild; 250 g ai/ha): 35"
CCOc1nc(-c2ccc(Cl)cc2)nn1Cc1ccnc(C(F)(F)F)c1 [Compound 26],100,40,45,70,50,10,10,10,20,25,40,100,100,100,95,98,98,90,70,85,"Plant response rating, Pigweed (pigweed [1]; 31 g ai/ha): 90; Plant response rating, Corn (corn; 31 g ai/ha): 30; Plant response rating (scale of 0 to 100 where 0 is no effect and 100 is complete control) (wheat (winter wheat); 16 g ai/ha): 5; Plant response rating (scale of 0 to 100 where 0 is no effect and 100 is complete control) (foxtail, giant; 16 g ai/ha): 10; Plant response rating (scale of 0 to 100 where 0 is no effect and 100 is complete control) (lambsquarters; 16 g ai/ha): 100; Plant response rating (scale of 0 to 100 where 0 is no effect and 100 is complete control) (pigweed [2]; 16 g ai/ha): 95; Plant response rating (scale of 0 to 100 where 0 is no effect and 100 is complete control) (ragweed; 16 g ai/ha): 85; Plant response rating (scale of 0 to 100 where 0 is no effect and 100 is complete control) (soybean; 16 g ai/ha): 35; Plant response rating (scale of 0 to 100 where 0 is no effect and 100 is complete control) (soybean; 31 g ai/ha): 70; Plant response rating (scale of 0 to 100 where 0 is no effect and 100 is complete control) (soybean; 62 g ai/ha): 65; Plant response rating (scale of 0 to 100 where 0 is no effect and 100 is complete control) (soybean; 125 g ai/ha): 70; Plant response rating (scale of 0 to 100 where 0 is no effect and 100 is complete control) (chickweed; 16 g ai/ha): 90; Plant response rating (scale of 0 to 100 where 0 is no effect and 100 is complete control) (chickweed; 31 g ai/ha): 95; Plant response rating (scale of 0 to 100 where 0 is no effect and 100 is complete control) (chickweed; 62 g ai/ha): 95; Plant response rating (scale of 0 to 100 where 0 is no effect and 100 is complete control) (chickweed; 125 g ai/ha): 95; Plant response rating (scale of 0 to 100 where 0 is no effect and 100 is complete control) (oat, wild; 16 g ai/ha): 35; Plant response rating (scale of 0 to 100 where 0 is no effect and 100 is complete control) (oat, wild; 31 g ai/ha): 35; Plant response rating (scale of 0 to 100 where 0 is no effect and 100 is complete control) (oat, wild; 62 g ai/ha): 40; Plant response rating (scale of 0 to 100 where 0 is no effect and 100 is complete control) (oat, wild; 125 g ai/ha): 45"
CCOc1nc(-c2ccccc2)nn1Cc1ccnc(C(F)(F)F)c1 [Compound 27],100,60,30,90,50,5,5,5,5,10,10,85,95,98,85,85,95,55,60,25,"Plant response rating, Pigweed (pigweed [1]; 500 g ai/ha, approx. 10 d): 100; Plant response rating, Corn (corn; 500 g ai/ha): 70; Plant response rating (scale of 0 to 100 where 0 is no effect and 100 is complete control) (wheat (winter wheat); 250 g ai/ha): 15; Plant response rating (scale of 0 to 100 where 0 is no effect and 100 is complete control) (foxtail, giant; 250 g ai/ha): 15; Plant response rating (scale of 0 to 100 where 0 is no effect and 100 is complete control) (lambsquarters; 250 g ai/ha): 98; Plant response rating (scale of 0 to 100 where 0 is no effect and 100 is complete control) (pigweed [2]; 250 g ai/ha): 95; Plant response rating (scale of 0 to 100 where 0 is no effect and 100 is complete control) (ragweed; 250 g ai/ha): 70; Plant response rating (scale of 0 to 100 where 0 is no effect and 100 is complete control) (soybean; 31 g ai/ha): 70; Plant response rating (scale of 0 to 100 where 0 is no effect and 100 is complete control) (soybean; 62 g ai/ha): 95; Plant response rating (scale of 0 to 100 where 0 is no effect and 100 is complete control) (soybean; 125 g ai/ha): 65; Plant response rating (scale of 0 to 100 where 0 is no effect and 100 is complete control) (soybean; 250 g ai/ha): 70; Plant response rating (scale of 0 to 100 where 0 is no effect and 100 is complete control) (chickweed; 31 g ai/ha): 95; Plant response rating (scale of 0 to 100 where 0 is no effect and 100 is complete control) (chickweed; 62 g ai/ha): 90; Plant response rating (scale of 0 to 100 where 0 is no effect and 100 is complete control) (chickweed; 125 g ai/ha): 90; Plant response rating (scale of 0 to 100 where 0 is no effect and 100 is complete control) (chickweed; 250 g ai/ha): 90; Plant response rating (scale of 0 to 100 where 0 is no effect and 100 is complete control) (oat, wild; 31 g ai/ha): 10; Plant response rating (scale of 0 to 100 where 0 is no effect and 100 is complete control) (oat, wild; 62 g ai/ha): 10; Plant response rating (scale of 0 to 100 where 0 is no effect and 100 is complete control) (oat, wild; 125 g ai/ha): 25; Plant response rating (scale of 0 to 100 where 0 is no effect and 100 is complete control) (oat, wild; 250 g ai/ha): 40"
